From patent publication US12410141B2, “Anti-cancer spirocyclic-guanidine compounds and uses thereof” (The Johns Hopkins University, priority 2020, dated 2025)

Key:
[1] = system: high molecular weight polyubiquitinated proteins in SKOV3 cells; experiment: Western blot for polyubiquitinated proteins, SKOV3 cells; type: cell-based; settings: 12 hr, Up284 and RA475 0.5 and 1 μM, RA190 1 μM
Procedure: Cell lysate (10-20 μg total protein) prepared in MPER (Pierce) from each sample was subjected to SDS-PAGE, transferred to PVDF membranes and analyzed by Western blot using antibodies specific for ubiquitin (P4D1, sc-8017, Santa Cruz), or after stripping antibody for actin (#66009, Protein Tech Group), at the dilutions recommended by the manufacturers, and for secondary antibodies either peroxidase-linked anti-mouse IgG or anti-rabbit IgG (GE Healthcare UK Ltd) were utilized at the recommended dilution. The blots were developed using HyGLO chemiluminescent detection reagent (Denville).
Like RA190, RA475 was designed to be an inhibitor of upstream 19S RP proteasome function. […] Treatment with the same doses of Up284 (0.5 and 1 μM) or 1 μM RA190 provided positive controls, and vehicle alone (DMSO) was used as the negative control. At the end of the incubation, attached cells were lysed using MPER buffer according to the manufacturer's protocol. The lysates were subjected to Western blot analysis using antibody to ubiquitin, and then stripped and re-probed with actin antibody to provide a loading control (FIG. 5).
Proteasome inhibitors cause a rapid accumulation of polyUb proteins that is associated with unresolved UPR stress and the induction of apoptosis. Since RA475 is cytotoxic to ovarian cancer cells (Table 1), and induces such a rapid accumulation of polyUb proteins (FIG. 5), it was examined whether RA475 also triggered apoptosis. SKOV3 cells (FIG. 5A) were treated with Up284 (0.5 μM and 1 μM), 1 μM RA190, RA475 (0.5 μM and 1 μM) or vehicle alone (DMSO) and then cultured for 12 hr. OVCAR3 cells (FIG. 5B) were treated with Up284 (0.5 μM), Bortezomib (Bz, 0.25 μM), Ixazomib (Iz, 0.25 μM), RA475 (0.5 μM and 1 μM) or vehicle alone (DMSO). The attached cells were harvested and their lysates were subjected to Western blot analysis, first probed with antibody to ubiquitin and then to actin.

[2] = Microsomal stability, human liver microsomes; type: in vitro ADME; settings: for % Drug Remaining: Human Liver Microsomes
Procedure: (§1) Human and mouse liver microsomes and NADPH regenerating system solutions were purchased from Corning Life Sciences (Tewsbury, MA). Human and mouse K2EDTA was purchased from BioIVT (Westbury, NY). Metabolic studies in liver microsomes (0.125 mg/mL) were conducted in 1× phosphate buffered saline (pH 7.4), NADPH-generating system, and 10 μM of RA475 in a final volume of 250 μl. An incubation mixture with and without NADPH-generating system as well as a neat solution without microsomes and NADPH-generating system were prepared. RA475 was added at the same concentration level into human and mouse EDTA plasma. All reactions were initiated with the addition of RA475. Incubations were performed in glass tubes maintained at 37° C. in a shaker bath. At 0, 30, and 60 minutes, 10 μL aliquots were sampled from the reaction mixture and 0.5 mL of acetonitrile containing internal standard (Up284) was added to each samples. Samples were vortex-mixed and underwent centrifugation for 5 min at 1430×g. A 10 μL aliquot of the supernatant was injected onto the LC-MS instrument for qualitative analysis using a temperature-controlled autosampling device operating at 5° C. Chromatographic analysis was performed using a Waters Acquity™ Ultra Performance LC. […] The mobile phase used for the chromatographic separation was composed of water (mobile phase A) and acetonitrile (mobile phase B) containing 0.1% (v/v) formic acid with a flow rate of 0.3 mL/min. The initial mobile phase composition was 80% mobile phase A and 20% mobile phase B. From 0.5 to 1 min, mobile phase B was increased linearly from 20% to 100%. From 1 to 3 min, mobile phase B was maintained at 100%. From 3.0 to 3.1 min, the gradient decreased to 20% mobile phase B and the conditions were maintained until 4.1 min to re-equilibrate the column for the next injection. The column effluent was monitored using an AB Sciex 5500 triple quadrupole mass spectrometer. The instrument was equipped with an electrospray interface, operated in a positive mode and controlled by the Analyst v1.6 software. For the stability study, the mass spectrometer was programmed to monitor the following MRM transition 408.2→366.1 for RA475 and 366.2→155.8 for UP284 (internal standard). Results were assessed qualitatively comparing the average area ratio of RA475 at 0 hr to area ratio at 30 and 60 minutes for both mouse and human liver microsomes. RA475 was not analyzed for metabolites due to the concentration of RA475 not decreasing.

[3] = Plasma stability, human EDTA plasma; type: in vitro ADME; settings: 37° C.
Procedure: as §1

Neat solution stability = type: physicochemical; settings: 10 μM, 37° C.
Procedure: as §1

[4] = system: ES2 cells stably expressing 4UbFL; experiment: In vitro 4UbFL assay, ES2 cells; type: cell-based; settings: ES2-4UbFL cells, two-fold dilution series, 4 hr
Procedure: Sub-confluent cultures of ES2 cells stably expressing 4UbFL were seeded at 10,000 cells/well in 96-well microtiter plates. At 18 hr post transfection, cells were treated with compounds or vehicle (DMSO) at the doses indicated. After a 4 hr incubation, the cells were lysed and the luciferase activity in each cell lysate was determined with a luciferase assay kit (Promega) according to the manufacturer's instructions. Bioluminescence was measured by using a luminometer (Glomax Multidetection system, Promega).
To measure RA475 on-target activity in live cells, the inventors used an expression vector for the reporter gene 4UbFL in which the gene for firefly luciferase (FL) is inserted in-frame 3′ to four copies of ubiquitin (PMID: 12819780). […] Proteasome inhibition stabilizes 4UbFL and thus increases the bioluminescence signal upon addition of luciferin substrate, and this can be measured by a luminometer (for cells) or visualized by IVIS imaging (for mice).
ES2 cells stably transfected with 4UbFL expression plasmid (ES2-4UbFL) were plated in a 96 well microtiter plate and 18 hr later treated with DMSO only as a negative control, or two-fold dilution series of either Up284 or RA475. After 4 hr medium was removed and the cells were lysed using luciferase lysis buffer and bioluminescence was measured using a luminometer after the addition of luciferin substrate.

SMILES	accumulation of polyUb proteins [1]	% Drug Remaining ([2]; NADPH Neg, 0 minutes) [%]	% Drug Remaining ([2]; NADPH Neg, 30 minutes) [%]	% Drug Remaining ([2]; NADPH Neg, 60 minutes) [%]	% Drug Remaining ([2]; NADPH Pos, 0 minutes) [%]	% Drug Remaining ([2]; NADPH Pos, 30 minutes) [%]	% Drug Remaining ([2]; NADPH Pos, 60 minutes) [%]	maximal decrease of area ratio ([2]; human liver microsomes lacking NADPH regeneration solution) [%]	% Drug Remaining ([3]; 0 minutes) [%]	% Drug Remaining ([3]; 30 minutes) [%]	% Drug Remaining ([3]; 60 minutes) [%]	% Drug Remaining (Neat solution stability; 0 minutes) [%]	% Drug Remaining (Neat solution stability; 30 minutes) [%]	% Drug Remaining (Neat solution stability; 60 minutes) [%]	bioluminescent signal of 4UbFL reporter [4]
Cl.Cl.N#Cc1ccc(/C=C2/C(=O)/C(=C/c3ccc(C#N)cc3)C23CCN(C(=N)N)CC3)cc1 [RA475]	very significant increase in a dose-dependent manner	100	99	93	100	112	102	7	100	108	107	100	108	111	significantly increased
N#Cc1ccc(/C=C2/C(=O)/C(=C/c3ccc(C#N)cc3)C23CCNCC3)cc1 [Up284, reference compound]	profound accumulation	100	57	52	100	43	43		100	100	90	100	86	78	significantly increased
